Laboratory results from patent US7524503B2, “Human cytomegalovirus (HCMV) cytotoxic T cell epitopes, polyepitopes compositions comprising same and diagnostic and prophylactic and therapeutic uses therefor” (priority 2001, dated 2009).

Assays:
[1] = system: HLA B27; test: MHC stabilization assay on T2 cells; type: cell-based, human; conditions: HLA B27 on transfected T2 cells; relative increase vs no peptide at 26° C.
[2] = biological target: T1, HLA B7 (Homo sapiens, UniProt P01889); type: cell-based; conditions: HLA B7 on transfected T2 cells; relative increase vs no peptide at 26° C.
T1 construct: expressed in transfected cells; host or cells: T2 cells
T1 sequence (P01889 25-362): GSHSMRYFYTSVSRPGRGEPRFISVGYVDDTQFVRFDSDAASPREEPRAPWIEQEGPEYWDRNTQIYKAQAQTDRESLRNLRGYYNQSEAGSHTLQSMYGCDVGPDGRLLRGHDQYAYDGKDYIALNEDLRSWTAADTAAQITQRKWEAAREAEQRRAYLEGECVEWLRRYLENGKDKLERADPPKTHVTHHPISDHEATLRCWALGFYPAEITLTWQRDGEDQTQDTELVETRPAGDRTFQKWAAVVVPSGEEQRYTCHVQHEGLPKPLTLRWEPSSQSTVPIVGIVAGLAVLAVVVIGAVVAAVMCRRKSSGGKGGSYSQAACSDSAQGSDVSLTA
T1 sequence (P61769 21-119, further chain): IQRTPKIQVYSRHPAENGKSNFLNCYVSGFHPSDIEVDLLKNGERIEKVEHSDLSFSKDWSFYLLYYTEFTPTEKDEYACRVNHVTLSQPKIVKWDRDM

[3] = system: HLA B8; test: MHC stabilization assay on T2 cells; type: cell-based, human; conditions: HLA B8 on transfected T2 cells; relative increase vs no peptide at 26° C.
[4] = system: PBMC from healthy HCMV seropositive donors; test: IFN-γ ELISPOT assay; type: cell-based, human; conditions: peptide 10 μg/ml
Summary of the method: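 IFN-γ-secreting T cells were counted as spots, with no-peptide control wells subtracted and means taken from triplicate wells. These spots came from healthy seropositive carriers' PBMC, 2.5×10^5 per well.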

[5] = system: peptide-sensitized autologous PHA blasts or LCLs; type: cell-based, human; parameters: key to CTL response: Y: Yes; ND: Not detected; conditions: predicted epitopes, Table 3
[6] = system: HLA A24; test: MHC stabilization assay on T2 cells; type: cell-based, human; conditions: HLA A24 on transfected T2 cells; relative increase vs no peptide at 26° C.

TRVKRNVKK (human cytomegalovirus pp50 CTL epitope peptide)
MSE (MHC stabilization efficiency) [1]: − (− = 0-50%)

RRDHSLERL (human cytomegalovirus gH CTL epitope peptide)
MSE (MHC stabilization efficiency) [1]: − (− = 0-50%)

APVAGSMPEL (human cytomegalovirus US11 CTL epitope peptide)
MSE (MHC stabilization efficiency) [2]: +++ (+++ = 200-300%)

MPRCLFAGPL (human cytomegalovirus gH CTL epitope peptide)
MSE (MHC stabilization efficiency) [2]: +++ (+++ = 200-300%)

VMKRRIEEI (human cytomegalovirus IE1 CTL epitope peptide)
MSE (MHC stabilization efficiency) [3]: + (+ = 51-99%)

TPMLLIFGHL (human cytomegalovirus gH CTL epitope peptide)
MSE (MHC stabilization efficiency) [2]: ++ (++ = 100-199%)

ELKRKMMYM (human cytomegalovirus IE1 CTL epitope peptide)
MSE (MHC stabilization efficiency) [3]: − (− = 0-50%) | ELISPOT Responses (SFC/10^6 PBMC) ([4]; donor eleven): 300 SFC/10^6 PBMC | ELISPOT Responses (SFC/10^6 PBMC) ([4]; donor epsilon): SC(1000), SFC/10^6 PBMC | ELISPOT Responses (SFC/10^6 PBMC) ([4]; donor gamma): 100 SFC/10^6 PBMC | ELISPOT Responses (SFC/10^6 PBMC) ([4]; donor sixteen): 4999 SFC/10^6 PBMC | ELISPOT Responses (SFC/10^6 PBMC) ([4]; donor three): 1992 SFC/10^6 PBMC | CTL response [5]: Y

RRKMMYMCY (human cytomegalovirus IE1 CTL epitope peptide)
MSE (MHC stabilization efficiency) [1]: + (+ = 51-99%)

QARLTVSGL
MSE (MHC stabilization efficiency) [2]: +++ (+++ = 200-300%) | ELISPOT Responses (SFC/10^6 PBMC) ([4]; donor four): MB(1116) SFC/10^6 PBMC

IMKDKNTPF (human cytomegalovirus IE2 CTL epitope peptide)
MSE (MHC stabilization efficiency) [3]: +++ (+++ = 200-300%)

APYQRDNFIL (human cytomegalovirus gH CTL epitope peptide)
MSE (MHC stabilization efficiency) [2]: +++ (+++ = 200-300%)

SPWAPTAPL (human cytomegalovirus pp150 CTL epitope peptide)
MSE (MHC stabilization efficiency) [2]: +++ (+++ = 200-300%) | ELISPOT Responses (SFC/10^6 PBMC) ([4]; donor four): MB(180) SFC/10^6 PBMC

GRCQMLDRR (human cytomegalovirus gH CTL epitope peptide)
MSE (MHC stabilization efficiency) [1]: − (− = 0-50%)

YRIQGKLEY
MSE (MHC stabilization efficiency) [1]: − (− = 0-50%) | ELISPOT Responses (SFC/10^6 PBMC) ([4]; donor sixteen): TC(307) SFC/10^6 PBMC

KARAKKDEL (human cytomegalovirus IE1 CTL epitope peptide)
MSE (MHC stabilization efficiency) [2]: −/− (− = 0-50%) | MSE (MHC stabilization efficiency) [3]: −/− (− = 0-50%) | ELISPOT Responses (SFC/10^6 PBMC) ([4]; donor eleven): 235 SFC/10^6 PBMC | ELISPOT Responses (SFC/10^6 PBMC) ([4]; donor four): 231 SFC/10^6 PBMC

RRRHRQDAL
MSE (MHC stabilization efficiency) [3]: + (+ = 51-99%) | MSE (MHC stabilization efficiency) [1]: ++ (++ = 100-199%) | ELISPOT Responses (SFC/10^6 PBMC) ([4]; donor eleven): 215 SFC/10^6 PBMC | ELISPOT Responses (SFC/10^6 PBMC) ([4]; donor sixteen): 71 SFC/10^6 PBMC

SPRTHYLMLL (human cytomegalovirus gH CTL epitope peptide)
MSE (MHC stabilization efficiency) [2]: +++ (+++ = 200-300%)

ARVYEIKCR (human cytomegalovirus pp28 CTL epitope peptide)
MSE (MHC stabilization efficiency) [1]: − (− = 0-50%) | ELISPOT Responses (SFC/10^6 PBMC) ([4]; donor fourteen): RK(148) SFC/10^6 PBMC | CTL response [5]: Y

FPDLFCLPL (human cytomegalovirus gH CTL epitope peptide)
MSE (MHC stabilization efficiency) [2]: +++ (+++ = 200-300%)

VLCPKNMII [reference compound]
MSE (MHC stabilization efficiency) [3]: − (− = 0-50%)

QPKRRRHRQ
MSE (MHC stabilization efficiency) [3]: − (− = 0-50%)

RRIEEICMK (human cytomegalovirus IE1 CTL epitope peptide) [reference compound]
MSE (MHC stabilization efficiency) [1]: − (− = 0-50%)

NVRRSWEEL (human cytomegalovirus pp150 CTL epitope peptide)
MSE (MHC stabilization efficiency) [2]: ++ (++ = 100-199%) | ELISPOT Responses (SFC/10^6 PBMC) ([4]; donor five): 274 SFC/10^6 PBMC | ELISPOT Responses (SFC/10^6 PBMC) ([4]; donor four): 1431 SFC/10^6 PBMC

KARDHLAVL (human cytomegalovirus pp150 CTL epitope peptide)
MSE (MHC stabilization efficiency) [2]: +++ (+++ = 200-300%) | ELISPOT Responses (SFC/10^6 PBMC) ([4]; donor four): MB(975) SFC/10^6 PBMC

EPMSIYVYAL
MSE (MHC stabilization efficiency) [2]: + (+ = 51-99%)

WPRERAWAL (human cytomegalovirus pp150 CTL epitope peptide)
MSE (MHC stabilization efficiency) [2]: +++ (+++ = 200-300%) | MSE (MHC stabilization efficiency) [3]: ++ (++ = 100-199%) | ELISPOT Responses (SFC/10^6 PBMC) ([4]; donor sixteen): TC(67) SFC/10^6 PBMC

PRKKKSKRI (human cytomegalovirus IE2 CTL epitope peptide)
MSE (MHC stabilization efficiency) [3]: − (− = 0-50%)

TYGRPIRFL (human cytomegalovirus gH CTL epitope peptide)
MSE (MHC stabilization efficiency) [6]: − (− = 0-50%)

AYEYVDYLF (human cytomegalovirus gB CTL epitope peptide)
MSE (MHC stabilization efficiency) [6]: − (− = 0-50%)

LCPKSIPGL
MSE (MHC stabilization efficiency) [3]: − (− = 0-50%)

VYALPLKML
MSE (MHC stabilization efficiency) [6]: − (− = 0-50%)

TPRVYYQTL (human cytomegalovirus US11 CTL epitope peptide)
MSE (MHC stabilization efficiency) [2]: +++ (+++ = 200-300%)

QIKVRVDMV (human cytomegalovirus IE1 CTL epitope peptide)
MSE (MHC stabilization efficiency) [3]: + (+ = 51-99%) | ELISPOT Responses (SFC/10^6 PBMC) ([4]; donor eleven): 2425 SFC/10^6 PBMC | ELISPOT Responses (SFC/10^6 PBMC) ([4]; donor epsilon): 2848 SFC/10^6 PBMC | ELISPOT Responses (SFC/10^6 PBMC) ([4]; donor one): 475 SFC/10^6 PBMC | ELISPOT Responses (SFC/10^6 PBMC) ([4]; donor sixteen): 2251 SFC/10^6 PBMC | CTL response [5]: Y

SPRTHYLML (human cytomegalovirus gH CTL epitope peptide)
MSE (MHC stabilization efficiency) [2]: +++ (+++ = 200-300%)

CRYKYLRKK (human cytomegalovirus pp28 CTL epitope peptide)
MSE (MHC stabilization efficiency) [1]: − (− = 0-50%)

RHRIKEHML (human cytomegalovirus IE1 CTL epitope peptide)
MSE (MHC stabilization efficiency) [3]: − (− = 0-50%)

ELRRKMMYM (human cytomegalovirus IE1 CTL epitope peptide)
MSE (MHC stabilization efficiency) [3]: ++ (++ = 100-199%) | ELISPOT Responses (SFC/10^6 PBMC) ([4]; donor eleven): 430 SFC/10^6 PBMC | ELISPOT Responses (SFC/10^6 PBMC) ([4]; donor epsilon): 1243 SFC/10^6 PBMC | ELISPOT Responses (SFC/10^6 PBMC) ([4]; donor one): 145 SFC/10^6 PBMC | ELISPOT Responses (SFC/10^6 PBMC) ([4]; donor sixteen): 4999 SFC/10^6 PBMC | CTL response [5]: Y

VYLFSLVVL (human cytomegalovirus US3 CTL epitope peptide)
MSE (MHC stabilization efficiency) [6]: − (− = 0-50%)
